From article PMC10652874, “Investigation into the mechanism of action of the antimicrobial peptide epilancin 15X” (Frontiers in Microbiology, 2023)

System: S. carnosus TM300
Experiment: RNAseq differential gene expression
Assay type: cell-based, Staphylococcus carnosus
Experimental: For the RNAseq experiments, epilancin was added at sub-lethal concentration (0.5x MIC) to S. carnosus TM300 once the cultures reached an OD600 of 0.6. RNA was extracted 40 min after the treatment, using a FastRNA Pro Blue kit (MP Biomedicals). Both treated and parallel untreated samples were collected at the same time. Sequencing was performed at the Carver Biotechnology Center (UIUC). For RNAseq analysis, gene counts were read in to R (v3.1.1; [Team, 2014]), and 14/2441 genes were removed because they had fewer than 32 total counts across the six samples. edgeR’s (v3.6.7) TMM normalization ([Robinson and Oshlack, 2010]) plus negative binomial generalized log-linear model ([McCarthy et al., 2012]) was used to test for differential expression between treated and untreated groups, while accounting for pairing of U and T replicates from three different cultures. p-values were adjusted using the false discovery rate method ([Benjamini and Hochberg, 1995]).

[1] = putative ABC transporter ATP-binding protein
[2] = putative short chain dehydrogenase
[3] = putative transcriptional regulator

In the case of Epilancin 15X, the “fold_change mobA” value (molybdopterin-guanine dinucleotide biosynthesis protein MobA) is reported as 2.6, the “fold_change mutT” value (mutT/nudix family protein) is reported as 5.15 and the fold_change int (phage integrase) is reported as 3.38. The “fold_change pstB” value (phosphate transporter ATP-binding protein) was 3.4, the “fold_change deoB” value (phosphopentomutase, gene drm) was 2.75 and the “fold_change dltD” value (poly D-alanine transfer protein) was 2.08. For the same substance, the “fold_change proP” value (proline/betaine transporter) was 2.73, the “fold_change Sca_0040” value (putative 2-keto-4-pentenoate hydratase) was 2.87 and the “fold_change Sca_1843” value (putative 3-methyladenine DNA glycosylase) was 2.27. The “fold_change Sca_0458” value [1] was 3.16, the “fold_change Sca_2242” value [1] was 2.55 and the “fold_change Sca_1033” value (putative ABC transporter permease) was 3.26. For the same substance, the “fold_change Sca_0699” value (putative ABC-type cobalt transport system ATPase) was 2.62, the “fold_change clpL” value (putative ATP-dependent Clp proteinase chain clpL) was 7.83 and the “fold_change Sca_0398” value (putative ATP-dependent helicase) was 3.32. The “fold_change Sca_0642” value (putative ComK family protein) was 2.73, the “fold_change Sca_2395” value (putative CorA-like Mg2+ transporter protein) was 2.01 and the “fold_change Sca_1264” value (putative DNA repair protein RadC, gene radC) was 12.09. The “fold_change sufB” value (putative FeS assembly protein SufB) was 3.43, the “fold_change Sca_0476” value (putative HNH family endonuclease, phage associated) was 4.35 and the “fold_change Sca_0479” value (putative IstB-like ATP-binding protein, phage associated) was 3.51. For the same substance, the “fold_change sdaB” value (putative L-serine dehydratase subunit beta) was 3.71, the “fold_change sdaA” value (putative L-serine dehydratase, iron-sulfur-dependent subunit alpha) was 2.95 and the “fold_change Sca_0539” value (putative MerR family transcriptional regulator) was 2.12. For the same substance, the “fold_change Sca_0093” value (putative N-acetyltransferase) was 2.6, the “fold_change Sca_1976” value (putative NAD(P)H-flavin oxidoreductase) was 5.31 and the “fold_change Sca_0831” value (putative NADH-flavin reductase) was 4.42. For the same substance, the “fold_change Sca_1692” value (putative NADP-dependent oxidoreductase) was 5.86, the “fold_change Sca_1977” value (putative NADPH oxidoreductase) was 5.07 and the “fold_change Sca_2123” value (putative Na(+)/H(+) antiporter subunit G) was 2.16. The “fold_change Sca_2138” value (putative PTS system, IIBC components) was 2.3, the “fold_change Sca_2137” value (putative RpiR family transcriptional regulator) was 2.96 and the “fold_change Sca_2214” value (putative Tat-translocated protein) was 3.14. For the same substance, the fold_change adc (putative acetoacetate decarboxylase) was 2.51, the “fold_change fadE” value (putative acid-CoA ligase) was 2.21 and the “fold_change adhC” value (putative alcohol dehydrogenase) was 2.53. The “fold_change Sca_2013” value (putative alcohol dehydrogenase, zinc-containing) was 3.05, the “fold_change aldH” value (putative aldehyde dehydrogenase) was 0.49 and the “fold_change Sca_1625” value (putative aldehyde dehydrogenase family protein) was 2.65. The “fold_change Sca_1685” value (putative alkaline shock protein) was 4.53, the “fold_change Sca_1958” value (putative alpha-acetolactate decarboxylase) was 4.48 and the “fold_change Sca_0638” value (putative alpha/beta fold family hydrolase) was 2.8. The “fold_change Sca_0872” value (putative alpha/beta hydrolase superfamily protein) was 3.04, the “fold_change Sca_0567” value (putative amidohydrolase) was 2.54 and the “fold_change Sca_0399” value (putative amidophosphoribosyltransferase) was 3.6. The “fold_change Sca_2120” value (putative amino acid transporter) was 0.49, the “fold_change Sca_2151” value (putative antibiotic transport-associated protein) was 2.04 and the “fold_change Sca_0467” value (putative antirepressor, phage associated) was 4.9. The “fold_change brnQ” value (putative branched-chain amino acid carrier) was 0.5, the “fold_change katE/B” value (putative catalase) was 5.7 and the “fold_change Sca_0538” value (putative cation exporting ATPase) was 5. For the same substance, the “fold_change czrB” value (putative cation-efflux system membrane protein) was 9.3, the “fold_change Sca_0867” value (putative cell wall-anchored protein) was 2.34 and the “fold_change Sca_0698” value (putative cobalt transport system permease) was 2.09. The “fold_change copA” value (putative copper-transporting P-type ATPase) was 2.32, the “fold_change Sca_0707” value (putative cytochrome D ubiquinol oxidase subunit I) was 2.66 and the “fold_change Sca_0708” value (putative cytochrome D ubiquinol oxidase subunit II) was 3.72. The fold_change dut (putative dUTP pyrophosphatase, phage associated) was 3.34, the “fold_change Sca_2298” value (putative dioxygenase) was 4.81 and the “fold_change Sca_0871” value (putative effector domain of transcriptional regulator) was 3.63. The “fold_change Sca_0099” value (putative esterase of the alpha-beta hydrolase superfamily) was 2.92, the “fold_change fmdA” value (putative formamidase) was 5.66 and the “fold_change Sca_1468” value (putative general stress protein) was 2.39. The “fold_change Sca_0390” value (putative glycerate kinase) was 2.11, the “fold_change Sca_1327” value (putative glycerophosphoryl diester phosphodiesterase) was 2.21 and the “fold_change opuCB” value (putative glycine betaine/carnitine/choline transport system permease) was 2.02. For the same substance, the “fold_change Sca_0056” value (putative glycosyl transferase) was 2.07, the “fold_change Sca_1969” value (putative glyoxylase family protein) was 4.21 and the “fold_change hrcA” value (putative heat-inducible transcriptional repressor) was 3.08. For the same substance, the “fold_change lrgA” value (putative holin-like protein LrgA) was 3.61, the “fold_change Sca_0480” value (putative holliday junction resolvase, phage associated) was 3.23 and the “fold_change Sca_2166” value (putative indole-3-pyruvate decarboxylase) was 2.06. For the same substance, the “fold_change Sca_0081” value (putative intracellular protease/amidase) was 5.75, the “fold_change Sca_1648” value (putative mannose-6-phosphate isomerase) was 0.5 and the “fold_change Sca_0366” value (putative membrane-bound sulfatase) was 2.62. For the same substance, the “fold_change adaB” value (putative methylated DNA-protein cysteine methyltransferase) was 2.26, the “fold_change Sca_2129” value (putative monovalent cation/H+ antiporter subunit A) was 3.98 and the “fold_change Sca_2128” value (putative monovalent cation/H+ antiporter subunit B) was 2.49. The “fold_change Sca_2127” value (putative monovalent cation/H+ antiporter subunit C) was 2.24, the “fold_change Sca_2126” value (putative monovalent cation/H+ antiporter subunit D) was 2.35 and the “fold_change Sca_2125” value (putative monovalent cation/H+ antiporter subunit E) was 2.21. The “fold_change Sca_2124” value (putative monovalent cation/H+ antiporter subunit F) was 2.43, the “fold_change Sca_0449” value (putative nitroreductase) was 2.26 and the “fold_change mocA” value (putative oxidoreductase protein) was 5.88. The “fold_change Sca_0684” value (putative peptidase) was 2.13, the “fold_change Sca_1042” value (putative peptidase (peptidase family M20/M25/M40)) was 0.49 and the “fold_change Sca_2130” value (putative phage integrase family protein) was 8.35. The “fold_change pstA” value (putative phosphate ABC transporter permease) was 3.6, the “fold_change Sca_1034” value (putative phosphate transport system substrate-binding protein) was 3.27 and the “fold_change Sca_1030” value (putative phosphate uptake regulator protein) was 3.27. The “fold_change Sca_0075” value (putative phospholipase/carboxylesterase) was 3.41, the “fold_change Sca_0147” value (putative purine regulatory protein) was 2.18 and the fold_change pdp (putative pyrimidine nucleoside phosphorylase) was 2.55. For the same substance, the “fold_change czrA” value (putative repressor protein) was 8.56, the “fold_change vraR” value (putative response regulator) was 8.62 and the “fold_change Sca_0400” value (putative ribosome-associated protein) was 2.26. The “fold_change csdB” value (putative selenocysteine lyase) was 3.29, the “fold_change Sca_1824” value [2] was 2.61 and the “fold_change Sca_2218” value [2] was 3.36. For the same substance, the “fold_change Sca_2233” value [2] was 2.35, the “fold_change xerD” value (putative site-specific recombinase XerD) was 2.53 and the “fold_change Sca_0225” value (putative sugar phosphate isomerase) was 3.01. The “fold_change trxB” value (putative thioredoxine reductase) was 2.17, the “fold_change gltC” value (putative transcription activator of glutamate synthase operon) was 2.32 and the “fold_change Sca_1970” value (putative transcription regulator MarR family) was 3.81. For the same substance, the “fold_change Sca_2227” value (putative transcriptional activator TenA) was 2.88, the “fold_change Sca_0070” value [3] was 5.38 and the “fold_change Sca_2381” value [3] was 3.42. For the same substance, the “fold_change Sca_1791” value (putative transmembrane protein) was 8.45, the “fold_change Sca_1822” value (putative transport protein) was 0.49 and the “fold_change Sca_1423” value (putative two-component response regulator) was 0.49. For the same substance, the “fold_change norA” value (quinolone resistance protein NorA) was 2.56, the “fold_change spoVG” value (regulatory protein SpoVG) was 2.18 and the “fold_change rnpA” value (ribonuclease P) was 2.02. For the same substance, the “fold_change prmA” value (ribosomal protein L11 methyltransferase, gene SCA_1200) was 2.07, the “fold_change Sca_0809” value (secretory antigen SsaA) was 2.03 and the “fold_change Sca_0615” value (sodium:alanine symporter family protein) was 3.14. The “fold_change Sca_2363” value (succinate-semialdehyde dehydrogenase (NADP+), gene gabD) was 2.52, the “fold_change trmFO” value (tRNA (uracil-5-)-methyltransferase Gid, gene gid) was 2.02 and the fold_change tdk (thymidine kinase) was 0.49. For the same substance, the “fold_change perR” value (transcription regulator Fur family) was 2.27, the “fold_change ctsR” value (transcription repressor of class III stress genes) was 5.22 and the “fold_change Sca_0964” value (transport system binding protein) was 3.98. For the same substance, the “fold_change sipB” value (type-1 signal peptidase 1B) was 2.45 and the “fold_change sipA” value (type-I signal peptidase) was 2.68.
